Experimental data from patent EP1774974A1, “Use of hyperforin or St. John's Wort in the treatment and prevention of metabolic syndrome” (Roots, Ivar, priority 2005, dated 2007).

Experiments:
HepG2 cells [1] = assay: Real-time RT-PCR gene expression analysis; type: cell-based, human; details: 1 µM hyperforin, 24 h, vs. control, geometric mean of three experiments
Description: (§1) HepG2 cells (human hepatocellular carcinoma, German Collection of Microorganisms and Cell Cultures, DSMZ, Braunschweig, Germany) were grown in Dulbecco's Modified Eagle Medium containing 1 g/l D-glucose and 5% fetal bovine serum with 5% CO2 at 37°C. Cells were seeded in 6-well dishes and grown to confluence. Content of 1 Esbericum™ capsule (total hypericin […], Schaper & Bruemmer, Salzgitter, Germany) was extracted with 1 ml ethanol. Cells were treated with either this extract (final concentration 0.1% (v/v)), or 1 µM hyperforin (Calbiochem, Schwalbach, Germany), or 0.1 % ethanol (controls) for 24 h. Three independent experiments were performed.
(§2) Cells were washed twice with phosphate buffered saline, harvested in lysis buffer (Qiagen, Hilden, Germany) with a rubber-policeman and homogenised by centrifugation through a Qiashredder (Qiagen, Hilden, Germany). Preparation of total RNA was performed using a Qiagen RNeasy Mini Kit according to the manufacturer's instructions. RNA concentration was determined photometrically (Uvicon photometer, Kontron). RNA was either used immediately for cDNA synthesis or stored at -80°C.
5 µg RNA was reverse transcribed in a total volume of 20 µl containing 200 U SuperScript™ II RT and 1x reaction buffer (Invitrogen, Karlsruhe, Germany), 500 ng pd(T)12-18 (Amersham Pharmacia Biotech, Freiburg, Germany) and 125 pmol/µl of each dNTP at 42°C for 1 h. Real-time PCR was performed with QuantiTect™ SYBR® Green PCR Kit (Qiagen, Hilden, Germany) according to the manufacturer's instructions. The reaction was carried out in a LightCycler (Roche, Mannheim, Germany), version 5.32, and analysed using the Second Derivative Maximum method.

HepG2 cells [2] = assay: Affymetrix HG U95Av2 microarray gene expression analysis; type: cell-based, human; details: 1 µM hyperforin, 24 h
Description: as §1, §2
Expression analysis was performed with Affymetrix HG U95Av2 microarray (Affymetrix, Santa Clara, CA). Synthesis of biotin-labelled cRNA and hybridisation were carried out following the Affymetrix protocol. Results were exported to Excei for analysis.

[3] = vs. control, geometric mean of three experiments

Substance: Hyperforin
- Fold change of ALDOA transcript, RT-PCR (HepG2 cells [1]): 1.42
- Fold change of FDPS transcript, RT-PCR (HepG2 cells [1]): 0.49
- Fold change of IGFBP3 transcript, RT-PCR (HepG2 cells [1]): 8.29
- Fold change of MVD transcript, RT-PCR (HepG2 cells [1]): 0.56
- Fold change of PCK2 transcript, RT-PCR (HepG2 cells [1]): 0.49
- Fold change of SLC2A1 transcript, RT-PCR (HepG2 cells [1]): 1.90
- Fold change of SLC2A3 transcript, RT-PCR (HepG2 cells [1]): 2.84
- differentially regulated sequences that were upregulated (HepG2 cells [2]): 120 sequences
- sequences identified as differentially regulated (p<0.05) (HepG2 cells [2]): 201 sequences
- Fold change of ALDOA transcript, Array (HepG2 cells [2]; [3]): 1.41
- Fold change of ENO2 transcript, Array (HepG2 cells [2]; [3]): 2.75
- Fold change of FDPS transcript, Array (HepG2 cells [2]; [3]): 0.53
- Fold change of IGFBP3 transcript, Array (HepG2 cells [2]; [3]): 8.79
- Fold change of LDHA transcript, Array (HepG2 cells [2]; [3]): 1.36
- Fold change of LDHB transcript, Array (HepG2 cells [2]; [3]): 1.42
- Fold change of MVD transcript, Array (HepG2 cells [2]; [3]): 0.26
- Fold change of PCK2 transcript, Array (HepG2 cells [2]; [3]): 0.43
- Fold change of PFKFB3 transcript, Array (HepG2 cells [2]; [3]): 1.83
- Fold change of PGK1 transcript, Array (HepG2 cells [2]; [3]): 1.50
- Fold change of PKM2 transcript, Array (HepG2 cells [2]; [3]): 1.40
- Fold change of SLC2A1 transcript, Array (HepG2 cells [2]; [3]): 1.74
- Fold change of SLC2A3 transcript, Array (HepG2 cells [2]; [3]): 3.57
- Fold change of SLC25A8 / UCP2 transcript, Array (HepG2 cells [2]; [3]): 0.54
- Fold change of TM7SF2 transcript, Array (HepG2 cells [2]; [3]): 0.52
